Experiments:
[1] = disclosed in European patent publication 9912; cited from earlier work
[2] = test system: Spontaneously hypertensive rats; assay: Systolic blood pressure and heart rate by modified tail cuff method in spontaneously hypertensive rats; format: in vivo; settings: 0.3 mg/kg p.o.; for %Change in Systolic Blood Blood: initial blood pressure 180±7mmHg; for %Change in Heart Rate: initial heart rate 507±5beats/min
Procedure: Systolic blood pressures were recorded by a modification of the tail cuff method described by I.M. Claxton, M.G. Palfreyman, R.H. Poyser, R.L. Whiting, European Journal of Pharmacology, 37, 179 (1976).
W+W BP recorder, model 8005, was used to display pulses. Prior to all measurments rats were placed in a heated environment (33.5±0.5°C) before transfer to a restraining cage. Each determination of blood pressure was the mean of at least 6 readings. Spontaneously hypertensive rats (ages 12-18 weeks) with systolic blood pressures >170 mmHg were considered hypertensive.

[3] = 5 rats, 2 hours post dose (2 rats had no measurable pulse)
[4] = 5 rats, 4 hours post dose (3 rats had no measurable pulse)
[5] = 5 rats, 6 hours post dose (2 rats had no measurable pulse)
[6] = 24 hours post dose (4 rats only)

| Compound | blood pressure lowering activity [1] | %Change in Systolic Blood Blood ([2]; 5 rats, 1 hour post dose) | %Change in Systolic Blood Blood [2, 3] | %Change in Systolic Blood Blood [2, 4] | %Change in Systolic Blood Blood [2, 5] | %Change in Heart Rate ([2]; 5 rats, 1 hour post dose) | %Change in Heart Rate [2, 3] | %Change in Heart Rate [2, 4] | %Change in Heart Rate [2, 5] | %Change in Systolic Blood Blood [2, 6] | %Change in Heart Rate [2, 6] |
| --- | --- | --- | --- | --- | --- | --- | --- | --- | --- | --- | --- |
| CC1(C)Oc2ccc(C#N)cc2[C@@H](N2CCCC2)[C@@H]1O (relative stereo) [6-cyano-3,4-dihydro-2,2-dimethyl-trans 4-pyrrolidino-2H-benzo[b]pyran-3-ol] | has blood pressure lowering activity |  |  |  |  |  |  |  |  |  |  |
| CC1(C)Oc2ccc(C#N)cc2[C@@H](N2CCCC2)[C@@H]1O (single isomer, unassigned; isomer 6) [(+)-isomer, 6-cyano-3,4-dihydro-2,2-dimethyl-trans 4-pyrrolidino-2H-benzo[b]pyran-3-ol] | greater blood pressure lowering activity than the (-)- isomer |  |  |  |  |  |  |  |  |  |  |
| CC1(C)Oc2ccc(C#N)cc2[C@@H](N2CCCC2=O)[C@@H]1O (relative stereo) [Compound (1) of Example (3S,4R)-isomer, 6-cyano-3,4-dihydro-2,2-dimethyl-trans-4-(2-oxo-1-pyrrolidinyl)-2H-benzo[b]pyran-3-ol] |  | -59 ± 4% | -52 ± 7% | -32% | -28 ± 8% | -2 ± 2% | -6 ± 3% | -15% | -5 ± 1% | -14 ± 7% | -3 ± 2% |

Reference: patent EP0120428A1, “Benzopyran isomers” (BEECHAM GROUP PLC, priority 1983, dated 1984)
